{"source": "patent US20110224297A1", "about": "“Methods of administering prostratin and structural analogs thereof” (priority 2008, published 2011)", "key": {"[1]": {"assay": "Stability in the formulation vehicle for in vivo studies", "type": "physicochemical", "conditions": "10% DMSO: 10% Cremophor: 80%:0.9% Saline; even at 37° C. for at least 2 hr", "method": "Drug was dissolved in vehicle (10% DMSO: 10% Cremophor: 80%:0.9% Saline) and then incubated at four different temperatures (37° C., RT, 4° C., and −20° C.) for up to 2 hr. Prostratin is stable in this formulation even at 37° C. for at least 2 hr."}, "[2]": {"assay": "Stability in PBS (phosphate buffer saline)", "type": "physicochemical", "method": "Prostratin is stable in plasma and buffer as well as in the stability formulation (see below) developed for in vivo studies in mice. Stability tests for prostratin in mouse and monkey plasma were done using two concentration (1 and 10 mg/ml) and two temperatures (Room Temperature (RT) and 37° C.). The only loss of drug occurred in mouse plasma after 24 hr incubation at 37° C. This represented only 14% decrease in parent drug peak area over this time frame. Prostratin is stable in PBS (phosphate buffer saline) at pH 2 and pH 7."}, "[3]": {"assay": "Single-dose range-finding study in rats", "type": "in vivo, Fisher rats", "conditions": "male, Fisher, rat, in vivo, intravenous; rats, single bolus dose; read-out: Maximum Tolerated Dose (MTD)", "method": "(§1) A single bolus dose of prostratin (0, 0.05, 0.1, 0.2, 0.4, and 0.8 mg/kg which correspond to 0, 0.3, 0.6, 1.2, 2.4, and 4.8 mg/m^2) was administered to Fisher rats (3 males/group) to determine the maximally tolerated dose and relative drug toxicity. […] Clinical signs of toxicity included decreased activity, prostration, tremors, and altered respiratory rate (decreased in some cases, increased in others). […] In the 0.4 mg/kg dose group, ALT and AST serum levels were 2- and 3-fold higher, respectively, than group mean ALT and AST values for control rats, and potassium level was decreased in 61% of the value obtained for control group animals. […] The Maximum Tolerated Dose (MTD) in rats is between 0.2-0.4 mg/kg dose of prostratin."}, "[4]": {"system": "Fisher rats", "assay": "Single-dose range-finding study in rats", "type": "in vivo", "conditions": "for mortality (died on Day 1 or Day 2): male Fisher rats", "method": "as §1"}, "[5]": {"system": "polychromatic erythrocytes (PCE) in CD® (SD) IGS BR rat bone marrow", "assay": "In vivo rat bone marrow micronucleus assay", "method": "The objective of this study was to evaluate the test article, prostratin, for in vivo clastogenic activity and/or disruption of the mitotic apparatus by detecting micronuclei in polychromatic erythrocytes (PCE) in CD® (SD) IGS BR rat bone marrow.\nIn the dose range-finding study, the test article was dissolved in ethanol followed by dilution with 0.9% Sodium Chloride for Injection to achieve a final ethanol:saline vehicle (0.8:99.2 v/v) at the appropriate dosing concentrations. The formulations were administered once by oral gavage to three males and three females per dose level. The animals were dosed at 0.4, 0.5, 2, or 5 mg/kg and observed for up to 2 days after dosing for toxic signs and/or mortality.\nBased on the results of the dose range-finding study, the maximum tolerated dose was estimated to be 2.4 mg/kg in the male animals and 2 mg/kg in the female animals. In the micronucleus assay, the test article was dissolved in ethanol followed by dilution with 0.9% Sodium Chloride for Injection to achieve a final ethanol:saline vehicle (0.8:99.2 v/v) at the appropriate dosing concentrations.\nBone marrow was extracted and at least 2000 PCEs per animal were analyzed for the frequency of micronuclei. Cytotoxicity was assessed by scoring the number of PCEs and normochromatic erythrocytes (NCEs) in at least the first 500 total erythrocytes for each animal."}, "[6]": {"system": "latently infected ACH-2 cells", "assay": "HIV expression (reverse transcriptase activity in supernatant) in latently infected ACH-2 cells", "type": "cell-based", "method": "The effect of prostratin on virus replication was assessed in latently infected ACH-2 and U1 cells by measuring the accumulation of reverse transcriptase activity in the supernatant of stimulated cells (Gustafson et al., 1992, J Med Chem 35(11): 1978-86).\nBriefly, 4×10^4 cells in 100 μl fresh medium were mixed with another 100 μl of medium with or without prostratin or PMA in a 96-well microtiter plate. Plates were incubated for 24-72 h at 37° C. Following incubation, supernatants were harvested, centrifuged (to remove any residual cells) and tested for reverse transcriptase activity as previously described (Gustafson et al., 1992, J Med Chem 35(11): 1978-86).\nIn these experiments, two concentrations of cells were tested (40,000 and 100,000 cells/well). It is noteworthy that the basal levels of reverse transcriptase activities were much higher in ACH-2 cells than in U1 cells."}, "[7]": {"assay": "Dose-range finding study in monkeys and determination of MTD", "type": "in vivo, rhesus macaque monkeys", "conditions": "rhesus monkey, in vivo", "method": "(§2) After a suitable wash-out period (15-20 days), monkeys that previously received 0.1 mg/kg, were administered a dose of 0.6 mg/kg, and those that previously received 0.4 mg/kg, were administered a second dose of 0.4 mg/kg. Blood was collected as before for clinical pathology and cytokine assay analysis. There was no mortality in this study. However both animals receiving 0.6 mg/kg prostratin required more time (2-4 times as much) to recover from Ketamine (used as a chemical restraint while weighing and dosing) after the second dosing compared with the initial doses. On day 3, all monkeys had elevated (2-3 fold) fibrinogen levels and there was evidence of dose-dependent hepatotoxicity."}, "[8]": {"system": "rhesus macaque monkeys", "assay": "Dose-range finding study in monkeys and determination of MTD", "type": "in vivo", "method": "as §2"}, "[9]": {"assay": "Solubility limit after dosing in culture medium", "type": "physicochemical", "conditions": "plasma or biological fluid, kinetic from dmso stock, dosing volume of 1%", "method": "Dimethylsulfoxide (DMSO) was the vehicle of choice for this study. […] The stock solution and its dilutions were dosed using a dosing volume of 1% (10 μL/ml) and the vehicle control cultures were treated with 10.0 μL/ml of DMSO."}}, "note": "Like-named read-outs stand apart in the source and are kept apart here."}
{"smiles": "CC(=O)O[C@@]12C[C@@H](C)[C@@]3(O)[C@@H](C=C(CO)C[C@]4(O)C(=O)C(C)=C[C@@H]34)[C@@H]1C2(C)C", "note": "[prostratin, 12-deoxyphorbol 13-acetate]", "values": [{"measurement": "stability in formulation", "setting": "[1]", "value": "stable"}, {"measurement": "stability in PBS", "setting": "[2]; pH 2", "value": "stable"}, {"measurement": "stability in PBS", "setting": "[2]; pH 7", "value": "stable"}, {"measurement": "MTD", "setting": "[3]", "value": "0.2 to 0.4", "unit": "mg/kg"}, {"measurement": "albumin (ALB) level relative to control", "setting": "[4]; 0.2 mg/kg dose group", "value": 88, "unit": "%"}, {"measurement": "ALT serum level versus control", "setting": "[4]; 0.4 mg/kg dose group", "value": 2, "unit": "fold"}, {"measurement": "AST serum level versus control", "setting": "[4]; 0.4 mg/kg dose group", "value": 3, "unit": "fold"}, {"measurement": "albumin (ALB) level relative to control", "setting": "[4]; 0.4 mg/kg dose group", "value": 76, "unit": "%"}, {"measurement": "potassium level relative to control", "setting": "[4]; 0.4 mg/kg dose group", "value": 61, "unit": "%"}, {"measurement": "reversibility of adverse events", "setting": "[4]; PLT, ALT, AST, ALB within normal range by day 8", "value": "reversible"}, {"measurement": "increase in neutrophile counts", "setting": "[4]; day 3, 0.4 mg/kg dose group", "value": 1.7, "unit": "fold"}, {"measurement": "decrease in platelet (PLT) counts compared to control", "setting": "[4]; day 3, 0.4 and 0.2 mg/kg dose groups", "value": "62-68%"}, {"measurement": "mortality (died on Day 1 or Day 2)", "setting": "[4]; single bolus 0.4 mg/kg", "value": "two of the three"}, {"measurement": "mortality (died on Day 1 or Day 2)", "setting": "[4]; single bolus 0.8 mg/kg", "value": "3/3"}, {"measurement": "micronucleated PCEs", "setting": "[5]; 0.5, 1, or 2 mg/kg for females, 0.6, 1.2, and 2.4 mg/kg for males", "value": "did not induce statistically significant increases"}, {"measurement": "cytotoxicity to the bone marrow (PCE:NCE ratios)", "setting": "[5]; any dose of the test article", "value": "not cytotoxic"}, {"measurement": "clinical observations", "setting": "[5]; female animals, 2 mg/kg, approximately one hour post-dose, mortality, irregular respiration, piloerection, and/or recumbency", "value": "signs of clinical toxicity"}, {"measurement": "rat bone marrow micronucleus assay, overall", "setting": "[5]; rat, in vivo", "value": "negative"}, {"measurement": "lowest dose to get a reliable increase in reverse transcriptase activity", "setting": "[6]", "value": 50, "unit": "ng/mL"}, {"measurement": "stimulation time at which sizeable reverse transcriptase activity is detected", "setting": "[6]", "value": 24, "unit": "h"}, {"measurement": "short incubation (pulsed stimulation) time leading to detectable reverse transcriptase activity", "setting": "[6]; none after 1 h and 4 h", "value": 6, "unit": "h"}, {"measurement": "MTD at 15 days", "setting": "[7]; both sexes, iv, monkeys, single bolus i.v. dose, read-out: MTD", "value": "0.4 to 0.6", "unit": "mg/kg"}, {"measurement": "MTD at 15 days", "setting": "[7]; intravenous, as restated in Example 13, read-out: MTD later found in monkeys at NIH", "value": "0.2 to 0.4", "unit": "mg/kg"}, {"measurement": "time to recover from Ketamine compared with the initial doses", "setting": "[8]; 0.6 mg/kg", "value": "2-4 times"}, {"measurement": "increase in level of ALT and AST over baseline", "setting": "[8]; 0.6 mg/kg dose group, day 3", "value": "25-50 fold"}, {"measurement": "time after which plasma drug level is undetectable", "setting": "[8]; 0.1 and 0.4 mg/kg i.v. bolus, day 1", "value": 4, "unit": "h"}, {"measurement": "reversibility of toxicities", "setting": "[8]; all clinical pathology measurements normal by day 15", "value": "reversible"}, {"measurement": "elevation of fibrinogen levels", "setting": "[8]; day 3, all monkeys", "value": "2-3 fold"}, {"measurement": "CK and LD levels", "setting": "[8]; day 3, dose-dependent", "value": "increases"}, {"measurement": "level of IL-6", "setting": "[8]; female monkeys, 0.4 and 0.6 mg/kg", "value": "increase"}, {"measurement": "mortality", "setting": "[8]; i.v. bolus 0.1, 0.4 and 0.6 mg/kg", "value": "no mortality"}, {"measurement": "toxicity at the initial doses", "setting": "[8]; single intravenous bolus 0.1 or 0.4 mg/kg", "value": "absence of toxicity"}, {"measurement": "solubility", "setting": "[9]", "value": "< 3500", "unit": "µg/mL"}]}
